Patent US8916599B2, “1H-benz imidazole-5-carboxamides as anti-inflammatory agents” (Orexo AB, priority 2008, dated 2014)

target: T1, recombinant human mPGES-1 (Homo sapiens, UniProt O14684); test: mPGES-1 inhibition test (microsomes, PGH2 substrate, HTRF detection of PGE2); type: biochemical; settings: inhibition of mPGES-1 at 1 μM (marked in cell)
T1 construct: made in house; host or cells: Rosetta E. coli (microsomal/membrane fraction)
T1 sequence (O14684 1-152): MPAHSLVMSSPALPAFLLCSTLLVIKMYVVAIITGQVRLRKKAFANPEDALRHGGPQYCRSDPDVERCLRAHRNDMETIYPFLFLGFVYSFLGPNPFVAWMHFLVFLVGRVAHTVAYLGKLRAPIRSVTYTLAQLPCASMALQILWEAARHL
In short: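 Microsomes from E. coli expressing recombinant human mPGES-1 in 0.1 M KPi pH 7.4 with 2.5 mM GSH were preincubated with inhibitor 25 min at room temperature. PGH2 was then added, and the reaction was stopped after 1 min with acidified FeCl2. PGE2 was quantified by HTRF (665/620 nm ratio) against a synthetic PGE2 standard curve.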

inhibition at 1 µM [%] | Structure (SMILES)
92 | Cc1ccc(Cl)c(Nc2nc3cc(C(=O)N[C@H]4CC[C@H](C(F)(F)F)CC4)c(F)cc3[nH]2)c1F [Example 653, 2-(6-Chloro-2-fluoro-3-methyl-phenylamino)-N-(trans-4-trifluoromethyl-cyclohex-1-yl)-6-fluoro-1H-benzimidazole-5-carboxamide]
94 | Cc1ccc(Cl)c(Nc2nc3cc(C(=O)NC4CCC(C)(C)CC4)c(F)cc3n2C)c1F [Example 627, 2-(6-Chloro-2-fluoro-3-methyl-phenylamino)-6-fluoro-N-(4,4-dimethyl-cyclohex-1-yl)-1-methyl-1H-benzimidazole-5-carboxamide]
100 | CC(C)Oc1cc2c(cc1C(=O)NC1CCCCC1)nc(Nc1c(Cl)ccc(Cl)c1F)n2C [Example 624, 2-(3,6-Dichloro-2-fluoro-phenylamino)-6-isopropoxy-N-cyclohexyl-1-methyl-1H-benzimidazole-5-carboxamide]
100 | O=C(Nc1ccc(Cl)c(F)c1)c1ccc2[nH]c(Nc3c(Cl)cccc3Cl)nc2c1 [Example 67, 2-(2,6-Dichloro-phenylamino)-1H-benzimidazole-5-carboxylic acid (4-chloro-3-fluoro-phenyl)-amide]
100 | COc1cc2c(cc1C(=O)NC1CCCCC1)nc(Nc1c(Cl)ccc(C)c1F)n2C [Example 651, 2-(6-Chloro-2-fluoro-3-methyl-phenylamino)-6-methoxy-N-cyclohexyl-1-methyl-1H-benzimidazole-5-carboxamide]

same assay, conditions: inhibition of mPGES-1 at 10 μM

Structure (SMILES) | inhibition at 10 µM [%]
O=C(Nc1ccc(C(F)(F)F)cn1)c1ccc2[nH]c(Nc3c(Cl)cccc3Cl)nc2c1 [Example 191, 2-(2,6-Dichloro-phenylamino)-1H-benzimidazole-5-carboxylic acid (5-trifluoromethyl-pyridin-2-yl)-amide] | 99
Cn1c(Nc2c(Cl)cccc2Cl)nc2cc(C(=O)NC3(C)CCCCC3)ccc21 [Example 253, 2-(2,6-Dichloro-phenylamino)-1-methyl-1H-benzimidazole-5-carboxylic acid (1-methyl-cyclohexyl)-amide] | 100
O=C(Nc1ccc(Br)cn1)c1ccc2nc(Nc3c(F)cccc3Cl)[nH]c2c1 [Example 192, 2-(2-Chloro-6-fluoro-phenylamino)-3H-benzimidazole-5-carboxylic acid (5-bromo-pyridin-2-yl)-amide] | 100
Cn1c(Nc2c(Cl)ccc(Cl)c2F)nc2cc(C(=O)NC3CCC4(CC3)CC4)c(F)cc21 [Example 606, 2-(3,6-Dichloro-2-fluoro-phenylamino)-6-fluoro-N-(spiro[2.5]oct-6-yl)-1-methyl-1H-benzimidazole-5-carboxamide] | 94
Cc1cccc(Cl)c1Nc1nc2cc(C(=O)Nc3ccccc3)ccc2[nH]1 [Example 12, 2-(2-Chloro-6-methyl-phenylamino)-1H-benzimidazole-5-carboxylic acid-phenylamide] | 99
O=C(N[C@H]1CC[C@H](C(F)F)CC1)c1cc2nc(Nc3c(Cl)cccc3Cl)[nH]c2cc1F [Example 496, 2-(2,6-Dichlorophenylamino)-N-((1r,4r)-4-(difluoromethyl)cyclohexyl)-6-fluoro-1H-benzimidazole-5-carboxamide] | 100
Cn1c(Nc2c(Cl)cccc2Cl)nc2cc(C(=O)Nc3ccc(Br)cc3)ccc21 [Example 316, 2-(2,6-Dichloro-phenylamino)-1-methyl-1H-benzimidazole-5-carboxylic acid (4-bromo-phenyl)-amide] | 100
COc1cc2c(cc1C(=O)Nc1cc(Cl)c(C)cn1)nc(Nc1c(Cl)cccc1Cl)n2C [Example 634, 2-(2,6-Dichlorophenylamino)-N-(4-chloro-5-methyl-pyridin-2-yl)-6-methoxy-1-methyl-1H-benzimidazole-5-carboxamide] | 97
CC(C)CCNC(=O)c1cc2nc(Nc3c(Cl)cccc3Cl)n(C)c2cc1F [Example 428, 2-(2,6-Dichlorophenylamino)-6-fluoro-N-isopentyl-1-methyl-1H-benzimidazole-5-carboxamide] | 100
Cn1c(Nc2c(Cl)cccc2Cl)nc2cc(C(=O)NCc3ncccc3F)c(F)cc21 [Example 536, 2-(2,6-Dichlorophenylamino)-6-fluoro-N-((3-fluoropyridin-2-yl)methyl)-1-methyl-1H-benzimidazole-5-carboxamide] | 89
COc1cc2c(cc1C(=O)NCc1ncccc1C1CC1)nc(Nc1c(Cl)cccc1Cl)n2C [Example 367, N-((3-Cyclopropylpyridin-2-yl)-methyl)-2-(2,6-dichlorophenylamino)-6-methoxy-1-methyl-1H-benzimidazole-5-carboxamide] | 100
CCc1cccc(CC)c1Nc1nc2cc(C(=O)Nc3ccc(Br)cc3)ccc2[nH]1 [Example 114, 2-(2,6-Diethyl-phenylamino)-1H-benzimidazole-5-carboxylic acid (4-bromo-phenyl)-amide] | 80
COCCCn1c(Nc2c(Cl)cccc2Cl)nc2cc(C(=O)Nc3cc(Cl)ccn3)ccc21 [Example 274, 2-(2,6-Dichloro-phenylamino)-1-(3-methoxy-propyl)-1H-benzimidazole-5-carboxylic acid (4-chloro-pyridin-2-yl)-amide] | 100
CC1CCC(NC(=O)c2ccc3c(c2)nc(Nc2c(Cl)cccc2Cl)n3C)CC1 (centres unmarked) [Example 239, 2-(2,6-Dichloro-phenylamino)-1-methyl-1H-benzimidazole-5-carboxylic acid (4-methyl-cyclohexyl)-amide] | 96

Continued, values first:

inhibition at 10 µM [%] | Structure (SMILES)
100 | CS(=O)(=O)c1cccc(NC(=O)c2ccc3[nH]c(Nc4c(Cl)cccc4Cl)nc3c2)c1 [Example 224, 2-(2,6-Dichloro-phenylamino)-1H-benzimidazole-5-carboxylic acid (3-methanesulfonyl-phenyl)-amide]
100 | CC(C)Oc1cc2[nH]c(Nc3c(Cl)ccc(Cl)c3F)nc2cc1C(=O)Nc1cccc(Cl)c1 [Example 614, 2-(3,6-Dichloro-2-fluoro-phenylamino)-N-(3-chloro-phenyl)-6-isopropoxy-1H-benzimidazole-5-carboxamide]
94 | Cc1cc(NC(=O)c2ccc3[nH]c(Nc4c(Cl)cccc4Cl)nc3c2)ncc1F [Example 189, 2-(2,6-Dichloro-phenylamino)-1H-benzimidazole-5-carboxylic acid (5-fluoro-4-methyl-pyridin-2-yl)-amide]
96 | CC(C)Oc1cc2[nH]c(Nc3c(Cl)ccc(Cl)c3F)nc2cc1C(=O)NC1CCC2(CC1)CC2 [Example 615, 2-(3,6-Dichloro-2-fluoro-phenylamino)-6-isopropoxy-N-(spiro[2.5]oct-6-yl)-1H-benzimidazole-5-carboxamide]
100 | O=C(Nc1cccc(Cl)c1)c1cc(Br)c2[nH]c(Nc3c(Cl)cccc3Cl)nc2c1 [compound 351]
100 | O=C(Nc1ccc(Cl)c(Cl)c1)c1ccc2[nH]c(Nc3c(Cl)cccc3Cl)nc2c1 [Example 111, 2-(2,6-Dichloro-phenylamino)-1H-benzimidazole-5-carboxylic acid (3,4-dichloro-phenyl)-amide]
97 | Cc1cc(NC(=O)c2ccc3[nH]c(Nc4c(Cl)cccc4Cl)nc3c2)ncc1Cl [Example 89, 2-(2,6-Dichloro-phenylamino)-1H-benzimidazol-5-carboxylic acid (5-chloro-4-methyl-pyridin-2-yl)-amide]
